From paper PMC4958397, “Synthesis, antibacterial and antiproliferative potential of some new 1-pyridinecarbonyl-4-substituted thiosemicarbazide derivatives” (Medicinal Chemistry Research, 2016) come the findings set out here.

Format in all cases: cell-based
Test [1] concerns Escherichia coli ATCC 25922. The test is described as follows: Broth microdilution MIC. The following applies: NA means inactive; for MIC: Escherichia coli, ATCC25922, broth microdilution, read-out: Minimum inhibitory concentration (MIC), E. coli; for Minimum inhibitory concentration (MIC), E. coli: broth microdilution. The source says: (§1) Panel reference strains of bacteria from the American Type Culture Collection or Polish Collection of Microorganisms, including aerobic Gram-positive bacteria: Staphylococcus aureus ATCC 25923 and Staphylococcus epidermidis ATCC 12228, and aerobic Gram-negative bacteria: Escherichia coli ATCC 25922 and Pseudomonas aeruginosa ATCC 9027, as well as microaerobic Gram-positive bacteria: Lactobacillus spp., Lactobacillus acidophilus PCM 2105, Streptococcus mutans PCM 2502 and Streptococcus sanguinis PCM 2335, were used. Microbial suspensions with an optical density of 0.5 McFarland standard at 1.5 × 10^8 CFU/mL (CFU: colony forming unit) were prepared in sterile 0.9 % NaCl. Mueller–Hinton (M–H) broth and M–H agar (Oxoid Ltd., England) for aerobic strains, and MRS Broth Lactobacillus, MRS Agar Lactobacillus (BioMaxima S.A., Poland), BHI Broth and BHI agar (BioMaxima S.A., Poland) for microaerobic strains were used in the microbial tests.
(§2) A broth microdilution method was used to evaluate the minimum inhibition concentration (MIC) according to the CLSI document (CLSI performance standards for antimicrobial susceptibility testing, 2008, Eighteenth International Supplement, CLSI document M7-MIC, Clinical Laboratory Standards Institute, Wayne) with some modifications. […] A serial doubling dilution of the compounds was prepared in 96-well plates (200 μL per well). A suitable medium (M-H Broth, MRS Broth Lactobacillus, BHI Broth) was used as a diluent. The final concentrations of derivatives were 1000–0.015 μg/mL. Finally, 2 μL of inoculum of the tested bacterial strain (1.5 × 10^8 CFU/mL) was added to each well. The tests were performed either at 36 °C for 18 h (aerobic strains) or at 40 h (microaerobic strains). After incubation, the panel was digitally analyzed at 600 nm using the microplate reader Bio Tech Synergy (USA) with a dedicated software system. The growth intensity in each well was compared with the negative and positive controls.
In general terms: In broth dilution the organism is exposed to a series of concentrations in liquid medium.

Test [2] has as its system Pseudomonas aeruginosa ATCC 9027. The test is described as follows: Broth microdilution MIC. The settings on record: Pseudomonas aeruginosa, ATCC9027, NA means inactive, read-out: Minimum inhibitory concentration (MIC), P. aeruginosa.
Source text: as §1, §2

In test [3] the test system is Streptococcus mutans PCM 2502. The experiment in a line: Broth microdilution MIC. The following applies: Streptococcus mutans, PCM2502, NA means inactive, read-out: Minimum inhibitory concentration (MIC), S. mutans.
Source text: as §1, §2

Test [4] has as its system Staphylococcus epidermidis ATCC 12228. The experiment in a line: Broth microdilution MIC. The settings on record: Staphylococcus epidermidis, ATCC12228, NA means inactive, read-out: Minimum inhibitory concentration (MIC), S. epidermidis.
Source text: as §1, §2

In test [5] the test system is Streptococcus sanguinis PCM 2335. The experiment in a line: Broth microdilution MIC. The settings on record: Streptococcus sanguinis, PCM2335, NA means inactive, read-out: Minimum inhibitory concentration (MIC), S. sanguinis.
Source text: as §1, §2

In test [6] the test system is Staphylococcus aureus ATCC 25923. The test is described as follows: Broth microdilution MIC. The following applies: Staphylococcus aureus, ATCC25923, NA means inactive, read-out: Minimum inhibitory concentration (MIC), S. aureus.
Source text: as §1, §2

In test [7] the test system is Lactobacillus acidophilus PCM 210. The experiment in a line: Broth microdilution MIC. The settings on record: for MIC: Lactobacillus acidophilus, PCM210, NA means inactive, read-out: Minimum inhibitory concentration (MIC), L. acidophilus.
A further test concerns Lactobacillus spp. The test is described as follows: Disk diffusion, zone of bacterial growth inhibition. The following applies: Lactobacillus, 100 μg of compound, read-out: Zone of bacterial growth inhibition, L.spp.
Source text: as §1
(§3) The preliminary antibacterial activity of the carbazide derivatives against human pathogenic Gram-positive, Gram-negative aerobic and microaerobic bacteria was evaluated by measuring the zones of inhibition in the disk diffusion method (Murray et al., [1995]). Each compound (100 µg) was placed on Petri plates with agar medium (previously inoculated with 0.5 McFarland standards with the tested bacterial strains). After 18 h of incubation at 37 °C (for aerobic strains) or 40 h at 35 °C (for microaerobic strains), zones of microbial growth produced around the tested substances were measured and recorded as the diameters of inhibition.
(A growth-free zone around the sample is the usual read-out of agar diffusion tests.)

For test [8], the system named is Escherichia coli ATCC 25922. The description is as above. The settings on record: Escherichia coli, ATCC25922, 100 μg of compound, read-out: Zone of bacterial growth inhibition, E.c.
Source text: as §1, §3

The subject of test [9] is Pseudomonas aeruginosa ATCC 9027. Described as above. The settings on record: Pseudomonas aeruginosa, ATCC9027, 100 μg of compound, read-out: Zone of bacterial growth inhibition, P.a.
Source text: as §1, §3

For test [10], the system named is Lactobacillus acidophilus PCM 210. The test is described as above. The following applies: Lactobacillus acidophilus, PCM210, 100 μg of compound, read-out: Zone of bacterial growth inhibition, L.a.
Source text: as §1, §3

Test [11] has as its system Streptococcus mutans PCM 2502. Described as above. The settings on record: Streptococcus mutans, PCM2502, 100 μg of compound, read-out: Zone of bacterial growth inhibition, S.m.
Source text: as §1, §3

In test [12] the test system is Staphylococcus epidermidis ATCC 12228. The description is as above. The settings on record: Staphylococcus epidermidis, ATCC12228, 100 μg of compound, read-out: Zone of bacterial growth inhibition, S.e.
Source text: as §1, §3

Test [13] concerns Streptococcus sanguinis PCM 2335. The test is described as above. The settings on record: Streptococcus sanguinis, PCM2335, 100 μg of compound, read-out: Zone of bacterial growth inhibition, S.s.
Source text: as §1, §3

The subject of test [14] is Staphylococcus aureus ATCC 25923. The test is described as above. The following applies: Staphylococcus aureus, ATCC25923, 100 μg of compound, read-out: Zone of bacterial growth inhibition, S.a.
Source text: as §1, §3

In brackets after ≈: the same amount, converted by molar mass.

As a reminder, the zone of inhibition is the size of the clear area around the sample on an inoculated plate. With `O=C(NNC(=S)Nc1ccc(Cl)cc1Cl)c1ccccn1` [Compound 4, 4-(2,4-Dichlorophenyl)-1-(pyridin-2-yl)carbonylthiosemicarbazide], the MIC in test [1] was 62 to 125 µg/mL; in [2], 500 µg/mL; in test [3], 31.2 µg/mL; in [4], 31.2 µg/mL; in test [5], 7.81 µg/mL; in test [6], 31.2 µg/mL. In test [7], the MIC amounted to 31.2 µg/mL (≈ 91.6 µM). Also, the “Minimum inhibitory concentration (MIC), E. coli” value in test [1] was determined as 62.5 µg/mL. Further, the zone of inhibition at 100 µg/disc turned out to be 24 mm in the test on Lactobacillus spp.; 20 mm in test [8]; 14 mm in [9]; 20 mm in [10]; 35 mm in test [11]; 27 mm in [12]. The zone of inhibition at 100 µg/disc in test [13] was 25 mm; in [14], 22 mm.
Consider `CCOc1ccc2nc3cc(N)ccc3c(N)c2c1` [Ethacridine lactate, ethacridine lactate, reference compound], for which the MIC came to 15.6 µg/mL in [1]; 125 µg/mL in [2]; 62.5 µg/mL in [3]; 31.2 µg/mL in test [4]; 31.2 µg/mL in test [5]; 31.2 µg/mL in test [6]. The MIC in test [7] came out at 31.2 µg/mL. Further, the zone of inhibition at 100 µg/disc was 10 mm in the test with Lactobacillus spp.; 12 mm in test [8]; 4 mm in test [9]; 15 mm in test [10]; 24 mm in test [11]; 8 mm in [12]. Moreover, the zone of inhibition at 100 µg/disc in [13] was found to be 24 mm; in [14], 10 mm.
`O=C(NNC(=S)Nc1ccccc1Cl)c1ccccn1` [Compound 2, 4-(2-Chlorophenyl)-1-(pyridin-2-yl)carbonylthiosemicarbazide]: the MIC in test [1] is 62 to 125 µg/mL; in [2], 1000 µg/mL; in [3], 250 µg/mL; in [4], 31.2 µg/mL; in test [5], 250 µg/mL; in [6], 31.2 µg/mL. In addition, in test [7], the MIC came to 62.5 µg/mL (≈ 204 µM). Moreover, the “Minimum inhibitory concentration (MIC), E. coli” value in [1] was found to be 62.5 µg/mL. The zone of inhibition at 100 µg/disc with Lactobacillus spp. stood at 24 mm; in test [8] it was 20 mm; in [9], 4 mm; in [10], 16 mm; in test [11], 24 mm; in [12], 25 mm. Moreover, the zone of inhibition at 100 µg/disc in [13] was 0 mm; in [14], 17 mm.
Turning to `CSc1ccc(NC(=S)NNC(=O)c2cccnc2)cc1` [Compound 6, 4-(4-Methylthiophenyl)-1-(pyridin-3-yl)carbonylthiosemicarbazide], the MIC was 62 to 125 µg/mL in [1]; more than 1000 µg/mL in [2]; 250 µg/mL in test [3]; 500 µg/mL in test [4]; 15.6 µg/mL in [5]; 250 µg/mL in test [6]. In test [7], the MIC was more than 1000 µg/mL. In test [1], the “Minimum inhibitory concentration (MIC), E. coli” value is 62.5 µg/mL. Further, the “Minimum inhibitory concentration (MIC), L. acidophilus” value in test [7] (NA means inactive) is reported as “did not limit the growth”. The zone of inhibition at 100 µg/disc in the test with Lactobacillus spp. stood at 0 mm; in test [8], 9 mm; in test [9], 0 mm; in test [10], 0 mm; in test [11] it was 11 mm; in test [12] it was 9 mm. In addition, the zone of inhibition at 100 µg/disc came to 19 mm in test [13] and 10 mm in test [14].
For the compound `O=C(NNC(=S)Nc1ccc(Cl)cc1Cl)c1cccnc1` [Compound 7, 4-(2,4-Dichlorophenyl)-1-(pyridin-3-yl)carbonylthiosemicarbazide], the MIC in test [1] was more than 1000 µg/mL; in test [2], more than 1000 µg/mL; in test [3], 500 µg/mL; in [4], 500 µg/mL; in [5], 1000 µg/mL; in test [6], more than 1000 µg/mL. The MIC in [7] was more than 1000 µg/mL. Moreover, the zone of inhibition at 100 µg/disc stood at 7 mm with Lactobacillus spp.; 9 mm in test [8]; 0 mm in test [9]; 5 mm in [10]; 24 mm in [11]; 10 mm in [12]. Moreover, the zone of inhibition at 100 µg/disc in test [13] came out at 10 mm; in test [14] it was 0 mm.
In the case of `[H]/N=C(\N/C(=N/[H])NCCCCCCNC(=N)NC(=N)Nc1ccc(Cl)cc1)Nc1ccc(Cl)cc1` [CLX, chlorhexidine digluconate, reference compound], the MIC came to 0.488 µg/mL in test [1]; 15.6 µg/mL in test [2]; 0.488 µg/mL in test [3]; 0.488 µg/mL in test [4]; 7.81 µg/mL in test [5]; 0.488 µg/mL in [6]. Moreover, the MIC in test [7] stood at 0.976 µg/mL. The zone of inhibition at 100 µg/disc with Lactobacillus spp. was 24 mm; in [8], 15 mm; in [9] it was 16 mm; in test [10], 24 mm; in [11], 26 mm; in [12], 23 mm. Moreover, the zone of inhibition at 100 µg/disc in [13] amounted to 29 mm; in [14], 23 mm.
